Measured values as given in patent US20230021483A1, “[…] […] METHOD AND CLASSIFICATION OF PHARMACEUTICAL COMPONENTS BY USING TRANSCRIPTOMES” (National Institutes of Biomedical Innovation, Health and …, priority 2016, published 2023).

Assays:
[1] = test system: liver (LV); assay: Whole organ transcriptome (GeneChip microarray) of liver 6 h after adjuvant administration: sDEGs, hierarchical clustering; type: in vivo, C57BL/6 mice; conditions: liver; as to adjuvant group (cluster) in LV: key: G1 (interferon signaling); G2 (metabolism of lipids and lipoproteins); G3 (response to stress); G4 (response to wounding); G5 (phosphate-containing compound metabolic process); G6 (phagosome)
[2] = test system: adjuvant-associated biological themes in LV, SP, LN
How it was run: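 Per-mouse whole-organ transcriptomes; genes with eij/ei(c)>2.0 tested for theme enrichment via TargetMine (GO, KEGG, Reactome, others), Fisher's exact test, Holm-Bonferroni correction. Themes shared by all three mice kept at p<0.05, using the smallest p. Score per adjuvant-associated term = Σ−log(p) of matching themes.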

Substance: heptanoyl-γ-D-glutamyl-(L)-meso-diaminopimelyl-(D)-alanine [FK565]
- adjuvant group (cluster) in LV ([1]; hierarchical clustering): G3
- Number of gene probes with statistically significant changes (sDEGs), LV, Down ([1]; i.d. administration, fold change <0.667, p<0.01, customized PA call=1, 6 h after adjuvant): 1972
- Number of gene probes with statistically significant changes (sDEGs), LV, Up ([1]; i.d. administration, fold change >1.5, p<0.01, customized PA call=1, 6 h after adjuvant): 2094
- IFN alpha, GO annotation line 1 of 5 ([2]; LV, ID): 4.54
- IFN alpha, GO annotation line 2 of 5 ([2]; LV, ID): 0
- IFN alpha: cellular response to interferon-alpha ([2]; LV, ID): 0
- IFN alpha: positive regulation of interferon-alpha production ([2]; LV, ID): 0
- IFN alpha: regulation of interferon-alpha production ([2]; LV, ID): 0
- IFN beta: cellular response to interferon-beta ([2]; LV, ID): 9.65
- IFN beta: interferon-beta production ([2]; LV, ID): 0
- IFN beta: positive regulation of interferon-beta production ([2]; LV, ID): 0
- IFN beta: regulation of interferon-beta production ([2]; LV, ID): 0
- IFN beta: response to interferon-beta ([2]; LV, ID): 17.3
- IFN gamma: cellular response to interferon-gamma ([2]; LV, ID): 0
- IFN gamma: interferon-gamma production ([2]; LV, ID): 0
- IFN gamma: regulation of interferon-gamma production ([2]; LV, ID): 0
- IFN gamma: response to interferon-gamma ([2]; LV, ID): 11
- NF-kappa B signaling pathway, GO annotation line 1 of 4 ([2]; LV, ID): 19.8
- NF-kappa B signaling pathway, GO annotation line 3 of 4 ([2]; LV, ID): 3.05
- NF-kappa B signaling pathway, GO annotation line 4 of 4 ([2]; LV, ID): 5.82
- TNF signaling pathway ([2]; LV, ID): 30.9
- adaptive immune response, GO annotation line 1 of 5 ([2]; LV, ID): 8.99
- adaptive immune response, GO annotation line 2 of 5 ([2]; LV, ID): 8.71
- adaptive immune response, GO annotation line 3 of 5 ([2]; LV, ID): 3.56
- adaptive immune response, GO annotation line 4 of 5 ([2]; LV, ID): 0
- adaptive immune response, GO annotation line 5 of 5 ([2]; LV, ID): 0
- apoptosis, GO annotation line 1 of 8 ([2]; LV, ID): 15.2
- apoptosis, GO annotation line 2 of 8 ([2]; LV, ID): 13
- apoptosis, GO annotation line 3 of 8 ([2]; LV, ID): 19.9
- apoptosis, GO annotation line 4 of 8 ([2]; LV, ID): 13.9
- apoptosis, GO annotation line 5 of 8 ([2]; LV, ID): 6.58
- apoptosis, GO annotation line 6 of 8 ([2]; LV, ID): 13.2
- apoptosis, GO annotation line 7 of 8 ([2]; LV, ID): 0
- apoptosis, GO annotation line 8 of 8 ([2]; LV, ID): 8.33
- cell death, GO annotation line 1 of 9 ([2]; LV, ID): 21.7
- cell death, GO annotation line 2 of 9 ([2]; LV, ID): 16.4
- cell death, GO annotation line 3 of 9 ([2]; LV, ID): 15.7
- cell death, GO annotation line 4 of 9 ([2]; LV, ID): 14
- cell death, GO annotation line 5 of 9 ([2]; LV, ID): 12.9
- cell death, GO annotation line 6 of 9 ([2]; LV, ID): 7.1
- cell death, GO annotation line 7 of 9 ([2]; LV, ID): 7.29
- cell death, GO annotation line 8 of 9 ([2]; LV, ID): 0
- cell death, GO annotation line 9 of 9 ([2]; LV, ID): 0
- chemokine, GO annotation line 1 of 4 ([2]; LV, ID): 0
- chemokine, GO annotation line 2 of 4 ([2]; LV, ID): 0
- chemokine, GO annotation line 3 of 4 ([2]; LV, ID): 0
- chemokine, GO annotation line 4 of 4 ([2]; LV, ID): 0
- chemotaxis, GO annotation line 1 of 11 ([2]; LV, ID): 16.1
- chemotaxis, GO annotation line 2 of 11 ([2]; LV, ID): 0
- chemotaxis, GO annotation line 4 of 11 ([2]; LV, ID): 5.48
- chemotaxis, GO annotation line 5 of 11 ([2]; LV, ID): 0
- chemotaxis, GO annotation line 6 of 11 ([2]; LV, ID): 5.83
- chemotaxis, GO annotation line 7 of 11 ([2]; LV, ID): 6.49
- chemotaxis, GO annotation line 8 of 11 ([2]; LV, ID): 0
- chemotaxis, GO annotation line 9 of 11 ([2]; LV, ID): 0
- chemotaxis, GO annotation line 10 of 11 ([2]; LV, ID): 0
- chemotaxis, GO annotation line 11 of 11 ([2]; LV, ID): 0
- cytokine, GO annotation line 1 of 17 ([2]; LV, ID): 37.8
- cytokine, GO annotation line 2 of 17 ([2]; LV, ID): 32.6
- cytokine, GO annotation line 3 of 17 ([2]; LV, ID): 23.6
- cytokine, GO annotation line 4 of 17 ([2]; LV, ID): 17.1
- cytokine, GO annotation line 5 of 17 ([2]; LV, ID): 30.2
- cytokine, GO annotation line 6 of 17 ([2]; LV, ID): 27.5
- cytokine, GO annotation line 7 of 17 ([2]; LV, ID): 8.69
- cytokine, GO annotation line 8 of 17 ([2]; LV, ID): 16.2
- cytokine, GO annotation line 9 of 17 ([2]; LV, ID): 17
- cytokine, GO annotation line 10 of 17 ([2]; LV, ID): 18.6
- cytokine, GO annotation line 11 of 17 ([2]; LV, ID): 3.46
- cytokine, GO annotation line 12 of 17 ([2]; LV, ID): 14
- cytokine, GO annotation line 13 of 17 ([2]; LV, ID): 7.57
- cytokine, GO annotation line 14 of 17 ([2]; LV, ID): 7.13
- cytokine, GO annotation line 15 of 17 ([2]; LV, ID): 10.1
- cytokine, GO annotation line 16 of 17 ([2]; LV, ID): 0
- cytokine, GO annotation line 17 of 17 ([2]; LV, ID): 0
- defense response, GO annotation line 1 of 11 ([2]; LV, ID): 57.8
- defense response, GO annotation line 2 of 11 ([2]; LV, ID): 29.6
- defense response, GO annotation line 3 of 11 ([2]; LV, ID): 24.9
- defense response, GO annotation line 4 of 11 ([2]; LV, ID): 18.4
- defense response, GO annotation line 5 of 11 ([2]; LV, ID): 5.98
- defense response, GO annotation line 6 of 11 ([2]; LV, ID): 6.22
- defense response, GO annotation line 7 of 11 ([2]; LV, ID): 0
- defense response, GO annotation line 8 of 11 ([2]; LV, ID): 0
- defense response, GO annotation line 9 of 11 ([2]; LV, ID): 0
- defense response, GO annotation line 10 of 11 ([2]; LV, ID): 0
- defense response, GO annotation line 11 of 11 ([2]; LV, ID): 0
- immune response, GO annotation line 1 of 8 ([2]; LV, ID): 46.1
- immune response, GO annotation line 2 of 8 ([2]; LV, ID): 20.8
- immune response, GO annotation line 3 of 8 ([2]; LV, ID): 19.5
- immune response, GO annotation line 4 of 8 ([2]; LV, ID): 11.9
- immune response, GO annotation line 5 of 8 ([2]; LV, ID): 9.97
- immune response, GO annotation line 6 of 8 ([2]; LV, ID): 12.1
- immune response, GO annotation line 7 of 8 ([2]; LV, ID): 0
- immune response, GO annotation line 8 of 8 ([2]; LV, ID): 0
- inflammatory response, GO annotation line 1 of 5 ([2]; LV, ID): 29.8
- inflammatory response, GO annotation line 2 of 5 ([2]; LV, ID): 11.4
- inflammatory response, GO annotation line 3 of 5 ([2]; LV, ID): 3.69
- inflammatory response, GO annotation line 4 of 5 ([2]; LV, ID): 0
- inflammatory response, GO annotation line 5 of 5 ([2]; LV, ID): 0
- innate immune response, GO annotation line 1 of 6 ([2]; LV, ID): 33.7
- innate immune response, GO annotation line 2 of 6 ([2]; LV, ID): 19.7
- innate immune response, GO annotation line 3 of 6 ([2]; LV, ID): 16.7
- innate immune response, GO annotation line 4 of 6 ([2]; LV, ID): 16.2
- innate immune response, GO annotation line 5 of 6 ([2]; LV, ID): 14.3
- innate immune response, GO annotation line 6 of 6 ([2]; LV, ID): 0
- interleukin-6: interleukin-6 production ([2]; LV, ID): 3.6
- interleukin-6: positive regulation of interleukin-6 production ([2]; LV, ID): 0
- interleukin-6: regulation of interleukin-6 production ([2]; LV, ID): 4.17
- interleukin-12: interleukin-12 production ([2]; LV, ID): 8.76
- interleukin-12: positive regulation of interleukin-12 production ([2]; LV, ID): 3.24
- interleukin-12: regulation of interleukin-12 production ([2]; LV, ID): 9.49
- migration, GO annotation line 1 of 10 ([2]; LV, ID): 13.6
- migration, GO annotation line 2 of 10 ([2]; LV, ID): 8.98
- migration, GO annotation line 3 of 10 ([2]; LV, ID): 14.2
- migration, GO annotation line 4 of 10 ([2]; LV, ID): 7.86
- migration, GO annotation line 5 of 10 ([2]; LV, ID): 7.57
- migration, GO annotation line 6 of 10 ([2]; LV, ID): 6.55
- migration, GO annotation line 7 of 10 ([2]; LV, ID): 6.19
- migration, GO annotation line 8 of 10 ([2]; LV, ID): 4.49
- migration, GO annotation line 9 of 10 ([2]; LV, ID): 0
- migration, GO annotation line 10 of 10 ([2]; LV, ID): 0
- stress, GO annotation line 1 of 3 ([2]; LV, ID): 57.7
- stress, GO annotation line 2 of 3 ([2]; LV, ID): 28.5
- stress, GO annotation line 3 of 3 ([2]; LV, ID): 9.02
- wounding, GO annotation line 1 of 3 ([2]; LV, ID): 12.1
- wounding, GO annotation line 2 of 3 ([2]; LV, ID): 12.8
- wounding, GO annotation line 3 of 3 ([2]; LV, ID): 9.45
- NF-kappa B signaling pathway, GO annotation line 2 of 4 ([2]; mouse, in vivo): 12.9
- chemotaxis, GO annotation line 3 of 11 ([2]; mouse, in vivo): 15.7
